Data: patent US8993606B2, “Oral formulations for treating metal overload” (FerroKin BioSciences, Inc., priority 2011, dated 2015)
Like-named read-outs stand apart in the source and are kept apart here.

Assays:
[1] = Example 6: multiple-dose study in iron-overloaded human subjects (PK); format: in vivo; details: for half-life / Tmax / CL renal / Cmax / AUC(0-t) / Vd/F: both sexes, human, plasma; for AUC(0-t): read-out: AUC(0 - 24); for Vd/F: read-out: Vz/F
From the text: Example 6 was a multiple-dose, escalating study in iron-overloaded subjects conducted at 5 centers in the US, Australia, and Thailand.
Men and women at least 18 years of age qualified to participate if they were able to voluntarily give consent and had transfusional overload requiring treatment with an iron chelator and were willing to discontinue their chelation for a period of at least 5 days prior to screening and during the study for a total of up to 35 days. […] The mean of each subject's last 3 pre-transfusion hemoglobin levels (prior to screening) was ≧7.5 g/dL and their serum ferritin was >400 ng/mL. Subjects also agreed to use an approved method of contraception during the study.
The study enrolled 20 subjects with the following primary diagnoses requiring chronic transfusions:
• 2 β-thalassemia major • 2 sickle cell anemia Cohort 2 (8 mg/kg): • 1α-thalassemia major (α°/α°) • 2 β-thalassemia major • 1 congenital dyserythropoietic anemia Cohort 3 (16 mg/kg): • 4 β-thalassemia major Cohort 4 (32 mg/kg): • 1 α-thalassemia major)(α°/α° • 2 β-thalassemia/hemoglobin E • 1 sickle cell anemia Cohort 5 (40 mg/kg): • 2 β-thalassemia major • 2 β-thalassemia/hemoglobin E

healthy subjects = experiment: Safety: single-dose study in healthy subjects (30-75 mg/kg, 20 mg/kg bid); format: in vivo
Description: This was a single-center, double-blind, placebo-controlled study of ascending single oral doses of Compound 1. Six cohorts of 8 subjects (30 and 50 mg/kg single doses) or 5 subjects (40, 60, and 75 mg/kg single doses and 20 mg/kg×2 doses at 12 hour intervals) were dosed sequentially with Compound 1. Within each cohort, 7 or 4 subjects received Compound 1 and 1 subject received placebo. Subjects in the 20 mg/kg×2 doses cohort received a dose the evening prior to the study day (Day −1), approximately 12 hours prior to dosing on Day 1. The dose administered on Day −1 followed a 2-hour fast and that on Day 1 a 10-hour fast.
Thirty-one subjects were enrolled and completed the study: 26 received a single oral dose of Compound 1 [30 (7 subjects), 40 (4 subjects), 50 (7 subjects), 60 (4 subjects) and 75 mg/kg (4 subjects)], 4 subjects previously administered a single dose at 30 and 40 mg/kg received 20 mg/kg bid and 5 received placebo. […] Treatment-emergent adverse events were reported for 13 of the 26 subjects receiving Compound 1 (50%). TEAEs in the active groups included catheter site erythema or hematoma (3 subjects), fatigue (1 subject), headache (2 subjects), dysgueusia (1 subject), presyncope (1 subject), abdominal pain (1 subject), nausea (1 subject), back pain (1 subject), muscle spasm (1 subject), decreased appetite (1 subject), chromaturia (1 subject).

iron-overloaded subjects = experiment: Safety: multiple-dose study in iron-overloaded subjects; format: in vivo, human
Description: Twenty iron-overloaded subjects were enrolled and completed the study. Four subjects in each cohort were orally administered 3, 8, 16, or 32 or 40 mg/kg/day of Compound 1 for 7 consecutive days.

[2] = 3 mg/kg/day, 7 days oral, N = 4
[3] = 8 mg/kg/day, 7 days oral, N = 4
[4] = 16 mg/kg/day, 7 days oral, N = 4
[5] = 32 mg/kg/day, 7 days oral, N = 2
[6] = 32 mg/kg/day, 7 days oral, N = 4
[7] = 40 mg/kg/day, 7 days oral, N = 4
[8] = single oral dose 30-75 mg/kg, 20 mg/kg bid

COCCOCCOCCOc1cccc(C2=N[C@@](C)(C(=O)O)CS2)c1O [Compound 1, (S)-4,5-Dihydro-2-[2-hydroxy-3-(3,6,9-trioxadecyloxy)phenyl]-4-methyl-4-thiazolecarboxylate magnesium hydroxide]
CL/F [1, 2]: 162 ± 85.0 mL/min | Fe(0-24) [1, 2]: 44.0 ± 16.0 % oral dose | Ue(0-24) [1, 2]: 66.1 ± 24.0 mg | λz [1, 2]: 0.0655 ± 0.0606 h⁻¹ | CL/F [1, 3]: 225 ± 142 mL/min | Fe(0-24) [1, 3]: 47.2 ± 13.8 % oral dose | Ue(0-24) [1, 3]: 201 ± 68.1 mg | λz [1, 3]: 0.0424 ± 0.0249 h⁻¹ | CL/F [1, 4]: 206 ± 78.4 mL/min | Fe(0-24) [1, 4]: 39.2 ± 5.86 % oral dose | Ue(0-24) [1, 4]: 402 ± 103 mg | λz [1, 4]: 0.0421 ± 0.0246 h⁻¹ | λz [1, 5]: 0.0381 ± 0.0091^a hr^−1 | CL/F [1, 6]: 172 ± 60.1 mL/min | Fe(0-24) [1, 6]: 43.1 ± 15.8 % oral dose | Ue(0-24) [1, 6]: 641 ± 208 mg | CL/F [1, 7]: 223 ± 23.6 mL/min | Fe(0-24) [1, 7]: 48.4 ± 14.0 % oral dose | Ue(0-24) [1, 7]: 905 ± 247 mg | λz [1, 7]: 0.0544 ± 0.0071 h⁻¹ | time of maximum plasma concentrations, mean ([1]; after 7 days of daily dosing): 1.24 h | time of maximum plasma concentrations, range ([1]; after 7 days of daily dosing, 3-40 mg/kg/day): 1.0 to 1.49 h | half-life ([1]; oral, across 5 cohorts, read-out: mean t1/2, range): 12.9 to 21.3 h | Tmax ([1]; oral, across 5 cohorts, read-out: median values for tmax, range): 1 to 1.49 h | CL renal [1, 2]: 75.2 ± 46.8 mL/min | Cmax [1, 2]: 5910 ± 2300 ng/mL | AUC(0-t) [1, 2]: 19500 ± 11300 ng·h/mL | half-life ([1]; 3 mg/kg/day, 7 days oral, N = 4, read-out: T1/2 (converted)): 16.2 ± 8.32 h | Vd/F [1, 2]: 185 ± 84.1 L | Tmax ([1]; 3 mg/kg/day, 7 days oral, median, read-out: tmax): 1.31 h | CL renal [1, 3]: 105 ± 62.9 mL/min | Cmax [1, 3]: 15000 ± 4440 ng/mL | AUC(0-t) [1, 3]: 44900 ± 30800 ng·h/mL | half-life ([1]; 8 mg/kg/day, 7 days oral, N = 4, read-out: T1/2 (converted)): 20.9 ± 11.3 h | Vd/F [1, 3]: 311 ± 137 L | Tmax ([1]; 8 mg/kg/day, 7 days oral, median, read-out: tmax): 1.18 h | CL renal [1, 4]: 83.2 ± 3600 mL/min | Cmax [1, 4]: 38200 ± 3950 ng/mL | AUC(0-t) [1, 4]: 92300 ± 36600 ng·h/mL | half-life ([1]; 16 mg/kg/day, 7 days oral, N = 4, read-out: T1/2 (converted)): 21.3 ± 11.8 h | Vd/F [1, 4]: 339 ± 166 L | Tmax ([1]; 16 mg/kg/day, 7 days oral, median, read-out: tmax): 1 h | half-life ([1]; 32 mg/kg/day, 7 days oral, N = 2, read-out: T1/2 (converted)): 18.7 h | Vd/F [1, 5]: 214 L | CL renal [1, 6]: 73.6 ± 37.8 mL/min | Cmax [1, 6]: 68200 ± 27500 ng/mL | AUC(0-t) [1, 6]: 158000 ± 43500 ng·h/mL | Tmax ([1]; 32 mg/kg/day, 7 days oral, median, read-out: tmax): 1.49 h | CL renal [1, 7]: 107 ± 26.2 mL/min | Cmax [1, 7]: 68600 ± 11000 ng/mL | AUC(0-t) [1, 7]: 141000 ± 8070 ng·h/mL | half-life ([1]; 40 mg/kg/day, 7 days oral, N = 4, read-out: T1/2 (converted)): 12.9 ± 1.68 h | Vd/F [1, 7]: 249 ± 40.4 L | Tmax ([1]; 40 mg/kg/day, 7 days oral, median, read-out: tmax): 1.26 h | subjects with treatment-emergent adverse events (healthy subjects; 13 of the 26 subjects): 50% | TEAE abdominal pain (healthy subjects; active groups, 26 subjects): 1 subject | TEAE back pain (healthy subjects; active groups, 26 subjects): 1 subject | TEAE catheter site erythema or hematoma (healthy subjects; active groups, 26 subjects): 3 subjects | TEAE chromaturia (healthy subjects; active groups, 26 subjects): 1 subject | TEAE decreased appetite (healthy subjects; active groups, 26 subjects): 1 subject | TEAE dysgueusia (healthy subjects; active groups, 26 subjects): 1 subject | TEAE fatigue (healthy subjects; active groups, 26 subjects): 1 subject | TEAE headache (healthy subjects; active groups, 26 subjects): 2 subjects | TEAE muscle spasm (healthy subjects; active groups, 26 subjects): 1 subject | TEAE nausea (healthy subjects; active groups, 26 subjects): 1 subject | TEAE presyncope (healthy subjects; active groups, 26 subjects): 1 subject | intensity of all AEs (healthy subjects; after treatment): mild intensity | serious side effects in humans (healthy subjects; daily dose higher than 40 mg/kg of body weight): no serious side effects were observed | deaths, SAEs, withdrawals due to AEs (healthy subjects; [8]): no deaths, SAEs), or withdrawals due to AEs | tolerability (healthy subjects; [8]): well tolerated | TEAE QT prolonged (iron-overloaded subjects; 1 subject): 5% | TEAE abdominal pain upper (iron-overloaded subjects; 1 subject): 5% | TEAE blood urine present (iron-overloaded subjects; 1 subject): 5% | TEAE chromaturia (iron-overloaded subjects; 1 subject): 5% | TEAE dizziness (iron-overloaded subjects; 1 subject): 5% | TEAE feeling hot (iron-overloaded subjects; 1 subject): 5% | TEAE pruritus (iron-overloaded subjects; 1 subject): 5% | TEAE tachycardia (iron-overloaded subjects; 1 subject): 5% | TEAE flatulence (iron-overloaded subjects; 2 subjects): 10% | tolerability (iron-overloaded subjects; 3, 8, 16, 32 or 40 mg/kg/day for 7 consecutive days): generally well tolerated | TEAE headache (iron-overloaded subjects; 5 subjects): 25% | TEAE urine color abnormal (iron-overloaded subjects; 8 subjects, related to study drug): 40% | subjects with at least 1 TEAE (iron-overloaded subjects; 20 subjects, majority mild and unrelated to study drug): 90% | QTcB interval prolongation (iron-overloaded subjects; one subject, Day 7 of treatment, not observed with QTcF): 20 ms | SAE recorded (iron-overloaded subjects; subject at 3 mg/kg/day, sickle cell crisis, not related to treatment): 1 SAE
